Experimental data: the CombiSolv-Exp solvation set (Vermeire and Green 2021)

Assay: solvent given as SMILES

CCCCCCC
Conditions	solvation free energy, 298 K [kJ/mol]
in BrC(Br)C(Br)Br	-14
in Brc1ccccc1	-18.2
in C1CCC(C2CCCCC2)CC1	-18.7
in C1CCCCC1	-20.2
in C1CCOC1	-19.2
in C1COCCO1	-16.2
in C=CCCCC	-19.7
in C=CCCCCCC	-19.4
in C=CCCCCCCCC	-19
in C=CCCCCCCCCCCCCCC	-17.7
in CC1CCS(=O)(=O)C1	-11.2
in CC1COC(=O)O1	-10.6
in CC#N	-13.3
in CC(=O)CC(C)C	-18.2
in CC(=O)N(C)C	-14.1
in CC(=O)O	-14.4
in CC(=O)c1ccccc1	-15.4
in CC(C)(C)O	-16.6
in CC(C)=O	-16.1
in CC(C)CC(C)(C)C	-19.2
in CC(C)CCCC(C)CCCC(C)CCCCC(C)CCCC(C)CCCC(C)C	-17.4
in CC(C)CCO	-16.6
in CC(C)CO	-16.4
in CC(C)O	-15.9
in CC(C)OC(C)C	-19.4
in CC(O)CO	-9.75
in CCBr	-19.7
in CCC(C)=O	-17.2
in CCCC#N	-15.4
in CCCC(=O)OCC	-18.2
in CCCC(C)=O	-17.4
in CCCC(C)O	-16.7
in CCCCC	-20
in CCCCC(CC)COC(=O)CCCCC(=O)OCC(CC)CCCC	-16.8
in CCCCC(CC)COC(=O)c1ccccc1C(=O)OCC(CC)CCCC	-15.9
in CCCCCC	-20
in CCCCCC(C)=O	-17.6
in CCCCCCCC	-19.3
in CCCCCCCCC	-19.1
in CCCCCCCCC=CCCCCCCCC(=O)OCC(COC(=O)CCCCCCCC=CCCCCCCCC)OC(=O)CCCCCCCC=CCCCCCCCC	-17.1
in CCCCCCCCCC	-19
in CCCCCCCCCCCC	-18.5
in CCCCCCCCCCCCCCCC	-18.2
in CCCCCCCCCCCCO	-16.7
in CCCCCCCCO	-16.8
in CCCCCCO	-16.7
in CCCCCCOC(C)=O	-17.9
in CCCCCl	-19.3
in CCCCN(C=O)CCCC	-16.3
in CCCCO	-16.5
in CCCCOC(=O)c1ccccc1C(=O)OCCCC	-16.2
in CCCCOC(C)=O	-17.7
in CCCCOCCCC	-19.1
in CCCCl	-20.1
in CCCO	-16
in CCN1CCCC1=O	-14.6
in CCN(CC)C(C)=O	-15.6
in CCN(CC)CC	-19.6
in CCNC(C)=O	-14.7
in CCNC=O	-13.6
in CCO	-15.5
in CCOC(=O)c1ccccc1C(=O)OCC	-14
in CCOC(C)(C)C	-19.3
in CCOC(C)=O	-17.1
in CCOCC	-19.5
in CCOCCO	-14.9
in CCOCCOCCOCC	-16.9
in CCOc1ccccc1	-17.4
in CN1CCCC1=O	-13.4
in CN1CCCCC1=O	-14.3
in CN1CCN(C)C1=O	-13
in CN(C)C=O	-13.2
in CN(C)P(=O)(N(C)C)N(C)C	-15.4
in CNC(C)=O	-14
in CNC=O	-11.9
in CO	-14.2
in COC(C)(C)C	-19.6
in COC(C)=O	-16.3
in COCCO	-13.6
in COCCOCCOCCOCCOC	-14.3
in COc1ccccc1	-17
in CS(C)=O	-9.5
in Cc1ccc(C)cc1	-19.2
in Cc1cccc(O)c1	-14.8
in Cc1ccccc1	-19.1
in Cc1ccccn1	-17.4
in ClC(Cl)(Cl)Cl	-20.1
in ClC(Cl)Cl	-19.4
in ClCCCl	-17.1
in ClCCl	-18.6
in Clc1ccccc1	-19.1
in FC(F)(F)C(F)(F)C(F)(F)C(F)(F)C(F)(F)C(F)(F)C(F)(F)C(F)(F)F	-12.5
in FC(F)(F)C(F)(F)C(F)(F)C(F)(F)C(F)(F)C(F)(F)C(F)(F)F	-13.4
in FC(F)(F)C(F)(F)C(F)(F)C(F)(F)C(F)(F)C(F)(F)F	-12.8
in Fc1ccccc1	-18.9
in ICI	-11.4
in N#CCCCCC#N	-10.3
in N#CCCOCCC#N	-8.33
in N#Cc1ccccc1	-15.7
in NC=O	-4.06
in NCCO	-5.61
in Nc1ccccc1	-12.5
in O=C1CCCCC1	-16.7
in O=C1CCCO1	-11.4
in O=C(O)C(Cl)Cl	-14.1
in O=CN1CCOCC1	-10.5
in O=Cc1ccco1	-12.4
in OCCCCCO	-10.6
in OCCCCO	-10.3
in OCCCO	-8.74
in OCCO	-5.1
in OCCOCCO	-7.95
in OCCOCCOCCO	-8.24
in OCCOCCOCCOCCO	-8.91
in OCCS	-10.3
in OCCc1ccccc1	-14.1
in OCc1ccccc1	-13.6
in OCc1ccco1	-12
in S=C=S	-19.9
in c1ccc2c(c1)CCCC2	-18.3
in c1ccc2ncccc2c1	-16.2
in c1ccc(C2CCCCC2)cc1	-18.1
in c1ccccc1	-19
in c1ccncc1	-16.3

Cc1ccccc1C=O
Conditions	solvation free energy, 298 K [kJ/mol]
in O	-16.4

C=CC(C)(CCC=C(C)C)OC(=O)CC (stereo not drawn)
Conditions	solvation free energy, 298 K [kJ/mol]
in O	-13.6

CCCCCN
Conditions	solvation free energy, 298 K [kJ/mol]
in CCCCCCC	-20
in O	-17.3

C1=CCCCCCC1
Conditions	solvation free energy, 298 K [kJ/mol]
in CN1CCCC1=O	-20.5
in CN(C)C=O	-20

CC1=CCC23C(C)CCC(C(C)C)C2C13 (stereo not drawn)
Conditions	solvation free energy, 298 K [kJ/mol]
in O	2.34

CCNc1nc(Cl)nc(NCC)n1
Conditions	solvation free energy, 298 K [kJ/mol]
in O	-42

CCOCC
Conditions	solvation free energy, 298 K [kJ/mol]
in C1CCOC1	-14.7
in C=CCCCCCCCCCCCCCC	-11.5
in CC(=O)N(C)C	-11.8
in CC(C)=O	-13.6
in CCCCCCCC	-12.8
in CCCCCCCCCCCCCCCC	-11.7
in CCCCCCCCCCO	-12.3
in CCCCCCCCO	-12.5
in CCCCCO	-13.1
in CCCCCl	-14.2
in CCCCN(C=O)CCCC	-12
in CCCCO	-13
in CCCCOCCCC	-13.5
in CCN1CCCC1=O	-11.6
in CCN(CC)C(C)=O	-12.3
in CCNC(C)=O	-11.8
in CCNC=O	-11.6
in CCO	-13.6
in CCOC(C)(C)C	-13.5
in CN1CCCC1=O	-11.6
in CN1CCCCC1=O	-11.6
in CN(C)C=O	-11.8
in CNC(C)=O	-11.6
in CNC=O	-11.1
in CO	-13.6
in CS(C)=O	-9.2
in Cc1cccc(C)c1	-13.8
in ClC(Cl)(Cl)Cl	-14.7
in ClCCCl	-14.4
in ClCCl	-16.4
in NC=O	-8.08
in O	-7.28
in [2H]O[2H]	-8.2

BrCBr
Conditions	solvation free energy, 298 K [kJ/mol]
in CCCCCCCCCCCCCCCC	-16.2
in CCCCCCCCO	-17.5
in O	-8.41
in [2H]O[2H]	-8.49

CC(C)CCCOC(=O)c1ccccc1C(=O)OCCCC(C)C
Conditions	solvation free energy, 298 K [kJ/mol]
in O	-28.2

CN(C)C(=O)c1ccc([N+](=O)[O-])cc1
Conditions	solvation free energy, 298 K [kJ/mol]
in O	-50

O=C(O)CCC(=O)O
Conditions	solvation free energy, 298 K [kJ/mol]
in CC(C)O	-51.5
in CCCO	-51
in CCO	-52.7
in O	-52.7
in O=C1CCCCC1	-48.7

CN1C(=O)CN=C(c2ccccc2)c2cc(Cl)ccc21
Conditions	solvation free energy, 298 K [kJ/mol]
in O	-52.6

CCc1ccncc1
Conditions	solvation free energy, 298 K [kJ/mol]
in O	-19.8

CN1CCCC1=O
Conditions	solvation free energy, 298 K [kJ/mol]
in C1CCCCC1	-24
in CC(C)CC(C)(C)C	-24.8
in O	-32.8
in c1ccccc1	-28.6

CC(=O)OC(C)C
Conditions	solvation free energy, 298 K [kJ/mol]
in CC(C)CCCC(C)CCCC(C)CCCCC(C)CCCC(C)CCCC(C)C	-14.7
in CCCCCCCCCC	-15.9
in CCCCCCCCCCCCCCCC	-14.9
in CCCCCCCCO	-16.7
in O	-10.8
in [2H]O[2H]	-11

Oc1cccc2ccccc12
Conditions	solvation free energy, 298 K [kJ/mol]
in CC(C)CC(C)(C)C	-35.7
in CCCCCC	-36.4
in CCCCCCC	-36.6
in CCCCCCCC	-36.5
in CCCCCCCCCC	-36.7
in O	-33.2

CCOc1ccc(C(=O)N(O)c2ccc(C)cc2)cc1
Conditions	solvation free energy, 298 K [kJ/mol]
in O	-52

C=C1CCC23CC1C(C)(C)C2CCC3C (stereo not drawn)
Conditions	solvation free energy, 298 K [kJ/mol]
in O	3.35

O=[N+]([O-])c1c(Cl)c(Cl)cc(Cl)c1Cl
Conditions	solvation free energy, 298 K [kJ/mol]
in CCCCCCCCC=CCCCCCCCC(=O)OCC(COC(=O)CCCCCCCC=CCCCCCCCC)OC(=O)CCCCCCCC=CCCCCCCCC	-45.3
in O	-15.8

CCC1(c2ccccc2)C(=O)NC(=O)NC1=O
Conditions	solvation free energy, 298 K [kJ/mol]
in O	-64.6

CCc1ccccc1C
Conditions	solvation free energy, 298 K [kJ/mol]
in O	-3.97

ClC(Cl)=C(Cl)C(Cl)=C(Cl)Cl
Conditions	solvation free energy, 298 K [kJ/mol]
in O	-1.92

OCCCc1ccccc1
Conditions	solvation free energy, 298 K [kJ/mol]
in O	-29

CCCCC(C)(C)C
Conditions	solvation free energy, 298 K [kJ/mol]
in O	12.6
